Series [1] has as its target T1, purified human neutrophil elastase (HNE) (Homo sapiens, UniProt P08246).
T1 sequence (P08246 30-247 limits assumed): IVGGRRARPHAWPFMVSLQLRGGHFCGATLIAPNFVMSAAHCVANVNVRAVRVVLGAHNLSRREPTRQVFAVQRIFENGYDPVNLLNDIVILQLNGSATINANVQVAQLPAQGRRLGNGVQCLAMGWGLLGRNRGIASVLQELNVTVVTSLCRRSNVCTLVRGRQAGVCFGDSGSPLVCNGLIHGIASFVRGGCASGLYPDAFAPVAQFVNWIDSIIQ
The series is described as follows: neutrophil elastase inhibition with chromogenic substrate MOS-AAPV-pNA. The series is classed as biochemical.

Series [2] deals with T2, BK2-receptor (Rattus norvegicus, UniProt P25023).
T2 sequence (P25023 1-396): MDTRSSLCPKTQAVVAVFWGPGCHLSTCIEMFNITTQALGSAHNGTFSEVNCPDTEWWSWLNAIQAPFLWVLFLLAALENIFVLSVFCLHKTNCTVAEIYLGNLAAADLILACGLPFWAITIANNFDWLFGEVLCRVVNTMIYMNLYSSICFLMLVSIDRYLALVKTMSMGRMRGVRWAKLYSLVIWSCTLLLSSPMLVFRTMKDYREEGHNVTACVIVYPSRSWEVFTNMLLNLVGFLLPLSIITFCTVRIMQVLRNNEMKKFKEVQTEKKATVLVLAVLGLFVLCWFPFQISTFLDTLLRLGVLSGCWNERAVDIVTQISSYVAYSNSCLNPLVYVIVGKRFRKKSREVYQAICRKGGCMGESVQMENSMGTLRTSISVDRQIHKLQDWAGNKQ

Series [3] has as its target T2, BK2-receptor. The series is described as follows: cell-based.
For series [4], the system named is mice injected in the hind limb foot pad with formalin. The series is described as follows: mouse formalin test (model of inflammatory and neurogenic pain). Conditions: for narcotic / behavioral effects in the formalin test: oxymorphone: highest doses 0.9 and 3.0 umoles/kg, CP-0494: over several hours. The series is classed as in vivo. On the procedure:
In order to test the activity of these compounds in vivo, a model of inflammatory and neurogenic pain was used. This model measures the behavioral responses of mice injected in the hind limb foot pad with 50 ul of formalin. Control mice (open circles) show a characteristic bi-phasic response to the injected formalin wherein there is a short lasting initial response followed by a quiescent period which is then followed by a sustained period of hind limb licking. The licking behavior is interpreted to mean that the limb is irritated and painful. The greater the time spent licking, the more painful the stimulus.

The nature of series [5]: in vitro. As to the method:
Unfortunately, there are no established animal models that can be employed to assess combined BKAn and NEI activity in vivo. Therefore, in order to assess the potential for in vivo hydrolysis of the intact heterodimer, an in vitro "surrogate" system was employed wherein the parent heterodimer (CP-0502) was incubated with human plasma and the resulting metabolites analyzed by reverse phase HPLC.
CP-0502 was added to freshly obtained normal human plasma and allowed to incubate at 37° C. for varying amounts of time. At the designated time the samples were treated with acidified (0.1N HCl) acetonitrile in order to precipitate the plasma proteins. Aliquots (75 ul) of the supernatents were then analyzed on a Vydac C-18 reverse phase HPLC column using 24% to 80% acetonitrile gradient in 0.1% TFA. The eluent was monitored at 214 nm.

In series [6] the test system is rat lung parenchymal strips (cyclooxygenase dependent contraction). The series is described as follows: rat lung parenchymal strips challenged with arachidonic acid. The series is classed as cell-based. The note with it: contraction in response to exogenously applied arachidonic acid. An excerpt: As mentioned previously, for the COI to work it may need to be dissociated from the BKAn so as to allow for its intracellular penetration. Therefore, in order to evaluate the functional activity of a BKAn/COI heterodimer, CP-0460 was exposed to rat lung parenchymal strips which were then challenged with arachidonic acid. This tissue is known to contain both non-specific esterase activity as well as to convert arachidonic acid to thromboxane (via a cyclooxygenase dependent pathway) which is then ultimately responsible for the smooth muscle contraction observed in this assay.

For series [7], the target named is mu-opiate receptor (Cavia porcellus, UniProt A0ACM8Q262). The series is described as follows: electrically stimulated guinea pig ileum assay. Format: cell-based. The note with it: in vitro mu-opiate receptor agonist activity.
Series [8] is described as follows: freshly obtained normal human plasma. The note with it: 37° C., up to 180 minutes.
[9] abbreviates: Table II, MOS-AAPV-pNA 0.5 mM, pH 7.5, 25 C.

Read-outs that look alike come from different tables or passages of the source. Square brackets hold non-standard residues; d marks the D form. Peptide text beside a SMILES is read from it. * marks the point of attachment. X13 = COc1ccc2c3c1O[C@H]1C(NC(=O)CNC(=O)CCSC4CC(=O)N(CCCCCCN5C(=O)CC(*)C5=O)C4=O)CC[C@@]4(O)[C@@H](C2)N(C)CC[C@]314; X9 = COc1ccc2c3c1O[C@H]1C(NCCSC4CC(=O)N(CCCCCCN5C(=O)CC(*)C5=O)C4=O)CC[C@@]4(O)[C@@H](C2)N(C)CC[C@]314; X1 = CN1CC[C@]23c4c5ccc(O)c4O[C@H]2C(NCCSC2CC(=O)N(CCCCCCN4C(=O)CC(*)C4=O)C2=O)CC[C@@]3(O)[C@H]1C5; X4 = CC(C)(C)c1ccc(C(C)(C)C(=O)Oc2ccc(S(=O)(=O)CCCC(=O)OCCCCCCN3C(=O)CC(*)C3=O)cc2)cc1; X7 = COc1ccc2c(c1)c(CC(=O)OCCCCCCN1C(=O)CC(*)C1=O)c(C)n2C(=O)c1ccc(Cl)cc1; Oic = O=C(O)[C@@H]1C[C@@H]2CCCC[C@@H]2N1; Hyp = O=C(O)[C@@H]1C[C@@H](O)CN1; dTic = O=C(O)[C@H]1Cc2ccccc2CN1; 2Thi = N[C@@H](Cc1cccs1)C(=O)O; X20 = O=C1CC(*)C(=O)N1CCCCCCO

Sequence of mu-opiate receptor (A0ACM8Q262 1-400): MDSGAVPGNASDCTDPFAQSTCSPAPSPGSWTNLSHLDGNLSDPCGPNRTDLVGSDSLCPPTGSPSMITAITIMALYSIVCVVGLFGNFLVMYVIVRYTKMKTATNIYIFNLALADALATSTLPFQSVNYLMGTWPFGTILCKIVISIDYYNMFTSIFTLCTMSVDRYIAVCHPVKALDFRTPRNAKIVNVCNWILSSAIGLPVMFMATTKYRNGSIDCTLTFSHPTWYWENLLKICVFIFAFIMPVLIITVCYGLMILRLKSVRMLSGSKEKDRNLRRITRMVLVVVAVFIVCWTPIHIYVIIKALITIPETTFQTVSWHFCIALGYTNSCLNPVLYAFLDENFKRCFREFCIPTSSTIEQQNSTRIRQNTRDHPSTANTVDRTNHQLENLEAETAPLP

Turning to `CC(C)(C)c1ccc(C(C)(C)C(=O)Oc2ccc(CCCC(=O)O)cc2)cc1` [CE-1218, 4-(3'-carboxy-propyl)phenyl 4-tert-butylphenylisobutyrate], the Ki in series [1] (Table II, MOS-AAPV-pNA 0.5 mM, pH 7.5, 25 C, read-out: Ki^ss (HNE)) turned out to be 10.5 nM. The “pA2 -Rat Uterus” value in series [2] (Table II) was “inactive”. Consider `CC(C)C[C@H](NC(=O)[C@@H](Cc1ccccc1)NC(=O)[C@H](CS)NC(=O)[C@H](Cc1ccccc1)NC(=O)CNC(=O)[C@@H]1C[C@@H](O)CN1C(=O)[C@@H]1CCCN1C(=O)[C@H](CCCNC(=N)N)NC(=O)[C@H](N)CCCNC(=N)N)C(=O)N[C@@H](CCCNC(=N)N)C(=O)O` [CP-0126, D R-R-P-J-G-F-C-D F-L-R] (HELM PEPTIDE1{[dR].R.P.[Hyp].G.F.C.[dF].L.R}$$$$V2.0), for which the “Ki^ss (HNE)” value in series [1] (setting [9]) was “inactive”. In the case of `N=C(N)NCCC[C@@H](N)C(=O)N[C@@H](CCCNC(=N)N)C(=O)N1CCC[C@H]1C(=O)N1C[C@H](O)C[C@H]1C(=O)NCC(=O)N[C@@H](Cc1cccs1)C(=O)N[C@@H](CS)C(=O)N1Cc2ccccc2C[C@@H]1C(=O)N1[C@H](C(=O)N[C@@H](CCCNC(=N)N)C(=O)O)C[C@@H]2CCCC[C@@H]21` [CP-0347, D R-R-P-J-G-Thi-C-D Tic-Oic-R] (H-[dR]RP[Hyp]G[2Thi]C[dTic][Oic]R-OH), in series [3], the Kb was 0.316 nM. For the compound `COc1ccc2c(c1)c(CC(=O)OCCCCCCN1C(=O)CC(SC[C@H](NC(=O)[C@H](Cc3ccccc3)NC(=O)CNC(=O)[C@@H]3C[C@@H](O)CN3C(=O)[C@@H]3CCCN3C(=O)[C@H](CCCNC(=N)N)NC(=O)[C@H](N)CCCNC(=N)N)C(=O)N[C@H](Cc3ccccc3)C(=O)N[C@@H](CC(C)C)C(=O)N[C@@H](CCCNC(=N)N)C(=O)O)C1=O)c(C)n2C(=O)c1ccc(Cl)cc1` (stereo partly shown) [CP-0460] (H-[dR]RP[Hyp]GFC(X7)[dF]LR-OH), the Kb in series [3] is ~15.8 nM. Same read-out and setting: the value for `COc1ccc2c3c1O[C@H]1C(NCCSC4CC(=O)N(CCCCCCN5C(=O)CC(SC[C@H](NC(=O)[C@H](Cc6ccccc6)NC(=O)CNC(=O)[C@@H]6C[C@@H](O)CN6C(=O)[C@@H]6CCCN6C(=O)[C@H](CCCNC(=N)N)NC(=O)[C@H](N)CCCNC(=N)N)C(=O)N[C@H](Cc6ccccc6)C(=O)N[C@@H](CC(C)C)C(=O)N[C@@H](CCCNC(=N)N)C(=O)O)C5=O)C4=O)CC[C@@]4(O)[C@@H](C2)N(C)CC[C@]314` (stereo partly shown) [CP-0477] (H-[dR]RP[Hyp]GFC(X9)[dF]LR-OH) was 12.6 nM.

Regarding `CC(C)C[C@H](NC(=O)[C@@H](Cc1ccccc1)NC(=O)[C@H](CSC1CC(=O)N(CCCCCCO)C1=O)NC(=O)[C@H](Cc1ccccc1)NC(=O)CNC(=O)[C@@H]1C[C@@H](O)CN1C(=O)[C@@H]1CCCN1C(=O)[C@H](CCCNC(=N)N)NC(=O)[C@H](N)CCCNC(=N)N)C(=O)N[C@@H](CCCNC(=N)N)C(=O)O` (stereo partly shown) [CP-0487] (H-[dR]RP[Hyp]GFC(X20)[dF]LR-OH), the “Ki^ss (HNE)” value in series [1] (setting [9]) is “inactive”. Also, in series [3], the Kb was 3.98 nM. In series [3], `COc1ccc2c3c1O[C@H]1C(NC(=O)CNC(=O)CCSC4CC(=O)N(CCCCCCN5C(=O)CC(SC[C@H](NC(=O)[C@H](Cc6ccccc6)NC(=O)CNC(=O)[C@@H]6C[C@@H](O)CN6C(=O)[C@@H]6CCCN6C(=O)[C@H](CCCNC(=N)N)NC(=O)[C@H](N)CCCNC(=N)N)C(=O)N[C@H](Cc6ccccc6)C(=O)N[C@@H](CC(C)C)C(=O)N[C@@H](CCCNC(=N)N)C(=O)O)C5=O)C4=O)CC[C@@]4(O)[C@@H](C2)N(C)CC[C@]314` (stereo partly shown) [CP-0488] (H-[dR]RP[Hyp]GFC(X13)[dF]LR-OH) gave a Kb of 6.31 nM. Take `CC(C)C[C@H](NC(=O)[C@@H](Cc1ccccc1)NC(=O)[C@H](CSC1CC(=O)N(CCCCCCN2C(=O)CC(SCCNC3CC[C@@]4(O)[C@H]5Cc6ccc(O)c7c6[C@@]4(CCN5C)[C@H]3O7)C2=O)C1=O)NC(=O)[C@H](Cc1ccccc1)NC(=O)CNC(=O)[C@@H]1C[C@@H](O)CN1C(=O)[C@@H]1CCCN1C(=O)[C@H](CCCNC(=N)N)NC(=O)[C@H](N)CCCNC(=N)N)C(=O)N[C@@H](CCCNC(=N)N)C(=O)O` (stereo partly shown) [CP-0494] (H-[dR]RP[Hyp]GFC(X1)[dF]LR-OH): the “narcotic / behavioral effects in the formalin test” value in series [4] is “no observable narcotic effects”. In series [3], this compound had a Kb of 3.98 nM. Consider `CC(C)C[C@H](NC(=O)[C@@H](Cc1ccccc1)NC(=O)[C@H](CSC1CC(=O)N(CCCCCCOC(=O)CCCS(=O)(=O)c2ccc(OC(=O)C(C)(C)c3ccc(C(C)(C)C)cc3)cc2)C1=O)NC(=O)[C@H](Cc1ccccc1)NC(=O)CNC(=O)[C@@H]1C[C@@H](O)CN1C(=O)[C@@H]1CCCN1C(=O)[C@H](CCCNC(=N)N)NC(=O)[C@H](N)CCCNC(=N)N)C(=O)N[C@@H](CCCNC(=N)N)C(=O)O` (stereo partly shown) [CP-0502] (H-[dR]RP[Hyp]GFC(X4)[dF]LR-OH), for which the Ki in series [1] was determined as 6.6 nM. In series [5] (human, plasma (freshly obtained normal human plasma)), the half-life was ~1.88 h. For the same compound, the “hydrolysis in human plasma (HPLC)” value in series [5] (normal human plasma, 37° C., to CP-0487 and its des-Arg9 derivative) is reported as “readily hydrolyzed”. In series [3], this compound had a Kb of 31.6 nM. Consider `COc1ccc2c(c1)c(CC(=O)O)c(C)n2C(=O)c1ccc(Cl)cc1` [indomethacin], for which the “log dose ratio shift” value in series [6] is 0.998+/-0.425. The “pA2, standard rat uterus assay” value in series [2] (intact compound) is reported as “no effect on this assay at any concentration”. In the case of `COc1ccc2c3c1O[C@H]1C(=O)CC[C@@]4(O)[C@@H](C2)N(C)CC[C@]314` [oxycodone], the “activity in guinea pig ileum assay” value in series [7] is “neither oxycodone nor the heterodimers derived from oxycodone (CP-0477 and CP-0488) showed any activity”. Also, the “pA2 -Rat Uterus” value in series [2] (Table I, BK2-receptor activity) is “inactive”. Regarding `CN1CC[C@]23c4c5ccc(O)c4O[C@H]2C(=O)CC[C@@]3(O)[C@H]1C5` [oxymorphone], in series [4] (50 ul formalin in hind limb foot pad), the “effect on licking behavior (both phases) in the formalin test” value is “reduces both phases of the licking behavior”. Besides, the “dose at which both phases of the pain response are blocked” value in series [4] (mouse formalin test) worked out at 0.9 µmol/kg. Also, in series [4], the “narcotic / behavioral effects in the formalin test” value was “significant behavioral obtundation resulting in catalepsy and frank respiratory depression”. In series [2] (Table I, BK2-receptor activity), the “pA2 -Rat Uterus” value was “inactive”.

With D R-R-P-J-G-F-C-D F-L-R, in series [8], the cleaved bond entry is listed as “Leu8-Arg9” and the fragment found result is given as “CP-0487”.

The Ki is the equilibrium dissociation constant of an inhibitor or competing ligand from its target. For orientation: half-life means how long it takes for the measured level to halve. A lower half-life goes with fast loss.

Source of the values: patent US5863899A (priority 1994, dated 1999).
